Reference: PubChem BioAssay AID489006 (Sanford-Burnham Center for Chemical Genomics, 2010)
Activity calls are given as the source filed them. The rule behind the calls is not given here.

test system: Jurkat NF-kB reporter, luminescence; assay: NF-kB reporter inhibition in Jurkat cells, dose response, selectivity assay for B-cell receptor NF-kB inhibitor project, cell-based, luminescence (AID 489006)

`CCc1ccc2nc(Nc3nc(COC)cc(=O)[nH]3)nc(C)c2c1` was tested. Which IC50 did it give?
Its IC50 is > 80 µM (inactive).

How did the IC50 turn out when `CCc1ccc(/C=C2\SC(=S)N(CCCC(=O)Nc3ccccn3)C2=O)cc1` was run?
The IC50 was 1.58 µM.

How did the IC50 turn out when `CCCNC(=O)CSCc1nc(-c2ccc(SC)cc2)oc1C` was run?
The IC50 was > 80 µM (inactive).

Which IC50 does the source give for `COc1ccc(C(C(=O)NC2CCCCC2)N(C(=O)CCl)c2ccc(Cl)cc2)cc1` (stereo unspecified) here?
The IC50 was 0.47 µM.

Which IC50 does the source give for `COc1ccc(NS(=O)(=O)c2ccc(-c3coc(C)n3)cc2)cc1OC` here?
Its IC50 is > 80 µM (inactive).

`COc1cc2c3c(c1)c(N=NC(N)=S)c(O)n3C(C)(C)C=C2C` was tested. Which IC50 did it give?
Its IC50 is > 80 µM (inactive).

For `COCCCNC(=O)COc1ccc(-c2nccc(-c3ccccn3)n2)cc1`, which IC50 is on record?
Its IC50 is 8.68 µM.

For `CCOC(=O)c1nn(-c2ccccc2)c(C#N)c1NC(=O)c1nn(CC)cc1Br`, which IC50 is on record?
Its IC50 is > 80 µM (inactive).

With `N=c1ccn(Cc2ccccc2Cl)cc1` as the compound, how does the IC50 read?
The IC50 was > 80 µM (inactive).

How did the IC50 turn out when `COc1ccc(C(=O)n2nc(-c3ccc(Cl)cc3)nc2N)cc1OC` was run?
The IC50 was 2.9 µM.

Which IC50 does the source give for `CC(C)OCCCNC(=O)c1c(N)n(/N=C/c2ccccn2)c2nc3ccccc3nc12` here?
Its IC50 is 40.2 µM (inactive).

For `COc1ccc(/C=C2\SC(=S)N(CCC(=O)Nc3ccc(C(=O)O)cc3)C2=O)cc1OC`, which IC50 is on record?
The IC50 was > 80 µM (inactive).

With `Cc1ccc(C)c(-n2nnnc2Sc2nnnn2-c2ccccc2)c1` as the compound, how does the IC50 read?
The IC50 was 1.42 µM.

`Cn1cnc([N+](=O)[O-])c1Sc1ccc([N+](=O)[O-])cc1` was tested. Which IC50 did it give?
The IC50 was 8.41 µM.

Which IC50 does the source give for `CCOc1ccc(-c2cc(CCCC(=O)NCc3ccc(C)cc3)no2)cc1` here?
Its IC50 is 6.59 µM.

With `CC1=CC(C)(C)Nc2ccc(OC(=O)c3ccco3)cc21` as the compound, how does the IC50 read?
Its IC50 is 1.4 µM.

With `Oc1[nH]c2ccccc2c1N=Nc1nc(Nc2ccccc2)nc(N2CCOCC2)n1` as the compound, how does the IC50 read?
Its IC50 is 9.4 µM.

With `CCN(CC)S(=O)(=O)c1ccc(N2CCOCC2)c(NC(=O)c2[nH]c(C)c(C(C)=O)c2C)c1` as the compound, how does the IC50 read?
The IC50 was 47 µM (inactive).

For `COc1cccc(/C=C2/SC(=S)N(CCCC(=O)Nc3ccc(O)cc3)C2=O)c1`, which IC50 is on record?
The IC50 was 29.5 µM (inactive).

With `O=C(NNC(=O)c1ccccc1O)c1ccc(Cl)c(S(=O)(=O)N2CCc3ccccc32)c1` as the compound, how does the IC50 read?
Its IC50 is > 80 µM (inactive).

With `COc1ccc(OC)c(S(=O)(=O)Nc2ccc(-c3ccc4nnc(C)n4n3)cc2)c1` as the compound, how does the IC50 read?
Its IC50 is 11.5 µM.

`Cc1csc(NC(=O)/C=C/c2ccc3c(c2)OCO3)n1` was tested. Which IC50 did it give?
Its IC50 is > 80 µM (inactive).

`Cc1ccc(O)c(NC(=O)COc2cc(C)ccc2C)c1` was tested. Which IC50 did it give?
The IC50 was > 80 µM (inactive).

With `Cc1ccc2nc(NC(=O)CSCC(=O)OCC(=O)c3ccc(Br)cc3)sc2c1` as the compound, how does the IC50 read?
Its IC50 is 0.33 µM.

With `O=C(CN1C(=O)c2ccccc2S1(=O)=O)N1CCc2ccccc21` as the compound, how does the IC50 read?
Its IC50 is 1.76 µM.

For `CNC(=O)c1cccn(Cc2ccc(C(F)(F)F)cc2)c1=O`, which IC50 is on record?
Its IC50 is 20.9 µM (inactive).

How did the IC50 turn out when `COc1ccc(-n2nnnc2S(=O)(=O)CC(=O)N2CCCCC2)cc1` was run?
Its IC50 is 2.25 µM.

With `O=C(CSCCO)Nc1ccc(C23CC4CC(CC(C4)C2)C3)cc1` as the compound, how does the IC50 read?
The IC50 was > 80 µM (inactive).

Which IC50 does the source give for `O=S(=O)(c1cnc(Cl)c(Cl)c1)N1CCCc2ccccc21` here?
The IC50 was 18.6 µM.

Which IC50 does the source give for `Cc1ccc(-c2nn3c(C)nnc3c3ccccc23)cc1S(=O)(=O)NCCN1CCOCC1` here?
Its IC50 is > 80 µM (inactive).

`Cc1cc(C)cc(NC(=O)c2nnn(Cc3cc(C)ccc3C)c2N)c1` was tested. Which IC50 did it give?
The IC50 was > 80 µM (inactive).

Which IC50 does the source give for `CC(C)Oc1ccc(C(=O)Nc2ccc(N(C)C)cc2)cc1` here?
The IC50 was > 80 µM (inactive).

With `Cc1c(CCC(=O)N2CCC(C(=O)O)CC2)c(=O)oc2cc3oc4c(c3cc12)CCCC4` as the compound, how does the IC50 read?
Its IC50 is > 80 µM (inactive).

With `O=C(CCCN1C(=O)/C(=C/c2ccccc2Cl)SC1=S)NNC(=O)c1ccncc1` as the compound, how does the IC50 read?
Its IC50 is 7.79 µM.

`Cn1c(=O)n(C)c2cc(C(=O)Nc3ccc4c(c3)OCO4)ccc21` was tested. Which IC50 did it give?
Its IC50 is > 80 µM (inactive).

With `N=c1c2c(n(Cc3ccc(Cl)cc3Cl)c3c1CCC3)CCCC2` as the compound, how does the IC50 read?
Its IC50 is 16.2 µM.

Which IC50 does the source give for `Cc1nn(C)c(C)c1CN(C)S(=O)(=O)c1ccc2ccccc2c1` here?
Its IC50 is > 80 µM (inactive).

For `CCOC(=O)CNC(=O)CSc1nnc(NC(=O)c2ccc(C)cc2)s1`, which IC50 is on record?
The IC50 was 5.88 µM.

For `COc1ccc(/C=C2\SC(=O)N(CCCC(=O)Nc3ccc(C(=O)O)cc3)C2=O)cc1OC`, which IC50 is on record?
Its IC50 is 29.4 µM (inactive).

Which IC50 does the source give for `C[C@H]1CCC/C=C/[C@@H]2C[C@H](O)C[C@H]2[C@H](O)/C=C/C(=O)O1` here?
Its IC50 is > 80 µM (inactive).

For `CCOC(=O)Cc1csc(NC(=S)NC(=O)c2ccc(C)cc2)n1`, which IC50 is on record?
The IC50 was 0.72 µM.

Which IC50 does the source give for `C=CCOc1ccc(NC(=O)C(=O)NCCCn2ccnc2)cc1` here?
Its IC50 is > 80 µM (inactive).

How did the IC50 turn out when `Cc1[nH]c2ccccc2c1/C=N/Nc1nc(Nc2ccccc2)nc(N2CCOCC2)n1` was run?
Its IC50 is 35.2 µM (inactive).

How did the IC50 turn out when `Cc1nc(Nc2c(Cl)cccc2Cl)sc1C(=O)Nc1ccccc1` was run?
The IC50 was > 80 µM (inactive).

With `CCOc1ccc(/C=C2\SC(=S)N(CCCC(=O)NCCCN3CCOCC3)C2=O)cc1` as the compound, how does the IC50 read?
The IC50 was 0.52 µM.

Which IC50 does the source give for `COc1ccccc1/C=C1\SC(=S)N(CCC(=O)NC2=NCCS2)C1=O` here?
The IC50 was 28.3 µM (inactive).

`C=CCOc1ccccc1CN(C(=O)CCl)c1ccc2c(c1)OCO2` was tested. Which IC50 did it give?
Its IC50 is 1.7 µM.

For `Cc1ccc(-c2nsc3c(N4CCC(C(N)=O)CC4)ncnc23)cc1`, which IC50 is on record?
The IC50 was 78.1 µM (inactive).

With `Cc1c(CCO)c(=O)oc2n[nH]c(-c3ccccc3)c12` as the compound, how does the IC50 read?
Its IC50 is > 80 µM (inactive).

Which IC50 does the source give for `COc1ccc(/C=C2/SC(=S)N(CCCC(=O)Nc3ccc(O)cc3)C2=O)cc1OC` here?
The IC50 was > 80 µM (inactive).

Which IC50 does the source give for `O=c1c(C=NCCCO)c(-c2ccccc2)[nH]n1-c1nc2ccccc2s1` here?
The IC50 was 3.46 µM.
